In patent US5480885A, “Ergoline derivatives of 1-propinylamine, a process for the manufacture thereof and the use thereof for medicaments” (priority 1991, dated 1996):
pKi: −log10 of the molar value. Entries after “also recorded” stand apart in the source; their conditions may differ.

Experiments:
[1] = system: pupil; assay: dilatation of the pupil in mice (Pulewka); type: in vivo; details: in words
[2] = system: isolated rat uterus; assay: uterotonic activity (isolated rat uterus); details: in words
[3] = target: T1, 5-HT1A serotoninergic receptor (Homo sapiens, UniProt P08908); assay: functional test, 5-HT1A serotoninergic receptor; details: in words
T1 sequence (P08908 1-422): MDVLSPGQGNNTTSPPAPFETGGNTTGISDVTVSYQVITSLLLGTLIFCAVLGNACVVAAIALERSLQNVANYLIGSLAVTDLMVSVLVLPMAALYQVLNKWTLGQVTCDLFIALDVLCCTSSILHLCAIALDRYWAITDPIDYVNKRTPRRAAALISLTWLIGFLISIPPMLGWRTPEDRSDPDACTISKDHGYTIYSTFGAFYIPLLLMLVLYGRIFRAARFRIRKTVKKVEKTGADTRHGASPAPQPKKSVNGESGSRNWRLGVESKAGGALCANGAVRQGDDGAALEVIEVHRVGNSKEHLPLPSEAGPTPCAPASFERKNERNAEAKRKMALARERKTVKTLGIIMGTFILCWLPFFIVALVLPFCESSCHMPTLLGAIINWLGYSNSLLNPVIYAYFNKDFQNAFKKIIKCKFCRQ

[4] = system: sigma receptor; assay: functional test, sigma receptor; details: in words
[5] = target: T2, 5-HT2 receptors (Mus musculus, UniProt P35363); assay: inhibition of the head twitch response after 5-HTP/carbidopa; type: in vivo, mice; details: ip
T2 construct: The head twitch model in mice; from tissue; host or cells: living mice (central nervous system)
Experimental: The substance was injected 15 minutes prior to DL-5-HTP. The head twitch was recorded from 30 to 35 minutes after the DL-5-HTP injection (modified method according to Handley and Singh, Br. J. Pharmacol. 86, 297 (1985)).
The compound was injected 15 minutes prior to L-5-HTP (modified method according to Handley and Singh, Br. J. Pharmacol. 86, 297 (1985)).
The head twitch model in mice represents an experimental model for determining the hallucinogenic action of a compound (the method was described by Handley and Singh, Br.J.Pharmacol., 86, 297-303, 1985). It is believed that the response is conveyed via the 5-HT2 receptors.

[6] = system: pithed rats; assay: vasoconstriction / diastolic pressure in pithed rats (Gillespie); type: in vivo, rat; details: 450 μg/kg i.v.; in words
[7] = target: T1, 5-HT1A serotoninergic receptor; assay: binding at [^3 H] 8-OH-DPAT binding site
Source text: (§1) Binding affinities of the compounds of Examples 1

[8] = target: 5-HT2 receptor (Homo sapiens, UniProt P28223); assay: biochemical; type: binding
Source text: as §1

[9] = system: 5-HT1A receptors; assay: spontaneous tail-flicks in rats; type: in vivo, rat; details: in words
[10] = target: D2 receptor (Homo sapiens, UniProt P14416); assay: binding, [^3 H]Raclopride
Source text: as §1

[11] = system: isolated rabbit thoracic aorta; assay: constriction of the isolated rabbit thoracic aorta
[12] = system: sigma receptor; assay: binding at [^3 H] DTG binding site; details: in words
[13] = system: pentobarbital-anesthetized normotensive rats; assay: blood pressure and heart rate in pentobarbital-anesthetized normotensive rats; type: in vivo, rat; details: 450 μg/kg i.v.
[14] = catalepsy in rats; type: in vivo, rat; details: rat, in vivo, sc; rats
Experimental: The s.c. application of the compounds of Example 5 (0.5 to 16 mg/kg) and of Example 8 (0.125 to 4 mg/kg), respectively, caused catalepsy in rats (the method was described by Morelli and Chiara, Europ. J. Pharmacol. 117, 179-185, 1985).

5-HT2 receptor, sequence (P28223 whole entry): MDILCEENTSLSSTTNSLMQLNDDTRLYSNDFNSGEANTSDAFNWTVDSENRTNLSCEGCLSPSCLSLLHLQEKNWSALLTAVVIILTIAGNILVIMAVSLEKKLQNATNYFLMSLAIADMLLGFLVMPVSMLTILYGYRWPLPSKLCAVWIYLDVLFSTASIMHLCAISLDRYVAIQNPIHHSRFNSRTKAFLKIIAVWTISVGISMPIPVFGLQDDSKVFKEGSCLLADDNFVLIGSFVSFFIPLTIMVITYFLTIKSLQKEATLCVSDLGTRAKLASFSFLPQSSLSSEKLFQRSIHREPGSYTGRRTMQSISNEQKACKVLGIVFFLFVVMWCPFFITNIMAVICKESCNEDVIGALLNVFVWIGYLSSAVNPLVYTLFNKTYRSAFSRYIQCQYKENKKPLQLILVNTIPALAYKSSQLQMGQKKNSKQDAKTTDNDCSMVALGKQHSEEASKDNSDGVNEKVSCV
D2 receptor, sequence (P14416 whole entry): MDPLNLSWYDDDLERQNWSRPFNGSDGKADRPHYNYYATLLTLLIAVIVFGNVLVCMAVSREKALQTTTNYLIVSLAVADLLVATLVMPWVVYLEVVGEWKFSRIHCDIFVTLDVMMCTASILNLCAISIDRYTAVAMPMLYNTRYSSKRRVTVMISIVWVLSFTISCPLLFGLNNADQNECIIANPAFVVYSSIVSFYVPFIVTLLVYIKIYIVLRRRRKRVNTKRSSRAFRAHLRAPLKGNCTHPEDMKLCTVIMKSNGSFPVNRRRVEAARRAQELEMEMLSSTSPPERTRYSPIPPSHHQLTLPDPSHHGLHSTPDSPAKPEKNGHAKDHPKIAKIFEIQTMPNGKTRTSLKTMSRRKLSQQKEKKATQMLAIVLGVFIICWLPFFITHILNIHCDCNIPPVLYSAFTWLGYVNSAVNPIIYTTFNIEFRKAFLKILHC
T2 sequence (P35363 whole entry): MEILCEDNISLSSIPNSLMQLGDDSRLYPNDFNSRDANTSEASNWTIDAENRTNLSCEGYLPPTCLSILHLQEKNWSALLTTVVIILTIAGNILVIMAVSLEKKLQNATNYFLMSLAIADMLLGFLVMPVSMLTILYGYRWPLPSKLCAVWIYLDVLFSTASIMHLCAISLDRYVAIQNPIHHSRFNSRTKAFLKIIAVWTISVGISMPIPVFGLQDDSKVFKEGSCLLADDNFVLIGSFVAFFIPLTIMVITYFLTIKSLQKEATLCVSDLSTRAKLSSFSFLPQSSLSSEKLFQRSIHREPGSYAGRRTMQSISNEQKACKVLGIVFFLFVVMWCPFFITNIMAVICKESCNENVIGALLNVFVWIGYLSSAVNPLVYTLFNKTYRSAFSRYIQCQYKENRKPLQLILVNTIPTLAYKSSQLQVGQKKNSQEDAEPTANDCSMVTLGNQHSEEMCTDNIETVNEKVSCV

SMILES: C#CCNC(=O)[C@@H]1C=C2c3cccc4[nH]cc(c34)C[C@H]2N(C)C1 [Example 1, 9,10-Didehydro-N-(2'-propinyl)-6-methylergoline-8β-carboxamide]
- dilatation of the pupil ([1]; 5 mg/kg i.p.): very strong dilatation of the pupil
- time course of effect ([1]; 5 mg/kg i.p.): After 60 minutes the effect was quickly reduced
- behavioural effects in mice [1]: The mice became agitated, piloerection, tremor and excitation took place
- uterotonic activity [2]: no uterotonic activity
- functional activity at 5-HT1A [3]: indicated an agonistic activity
- functional activity at sigma receptor [4]: indicated an antagonistic activity
- inhibition at 4 mg/kg ([5]; 4 mg/kg i.p., D,L-5-hydroxytryptophan/carbidopa, 15 minutes prior): 62%
- ED50 ([5]; mice, 5-hydroxytryptophan/carbidopa, read-out: ID50, inhibition of head twitch response): 0.74 mg/kg
- peripheral vasoconstriction [6]: transient, yet very strong peripheral vasoconstriction
- pKi ([7]; 5-HT1A, [^3 H]8-OH-DPAT): 9.00
- affinity to 5-HT1A receptor ([7]; [^3 H] 8-OH-DPAT, in words): high affinity; also recorded: possessed affinity
- pKi ([8]; 5-HT2, [^3 H]Ketanserin, read-out: Ki): 7.19
- affinity for 5-HT2 receptors ([8]; in words): high affinity
- spontaneous tail-flick ([9]; 0.08 to 0.63 mg/kg s.c. (Example 1), 5.0 mg/kg s.c. (Example 2)): provoked a dose- and time-dependent spontaneous tail-flick in rats
- tail-flick effect compared with 8-OH-DPAT ([9]; s.c.): very similar to that caused by the selective 5-HT1A agonist 8-OH-DPAT
- pKi ([10]; D2, [^3 H]Raclopride): 6.82
- affinity for D2 receptors ([10]; in words): lower affinity
- receptors responsible for vasoconstriction ([11]; 1 μM): the result of the activation of α1 -adrenergic receptors
- constriction of the isolated rabbit thoracic aorta ([11]; in words): caused a constriction of the isolated rabbit thoracic aorta
- intrinsic activity, aorta constriction ([11]; in words, vs serotonin): comparable to that of serotonin
- affinity to sigma receptor [12]: possessed affinity
- exitus [13]: followed by exitus
- time to onset of reduction in pressure and heart rate [13]: Approximately 2 minutes
- effect on carotid artery pressure ([13]; in words): a strong reduction in the carotid artery pressure and heart rate
- effect on heart rate ([13]; in words): a strong reduction in the carotid artery pressure and heart rate

SMILES: O=C(CCCN1CCC(O)(c2ccc(Cl)cc2)CC1)c1ccc(F)cc1 [haloperidole, reference compound]
- ED50 [14]: 0.019 mg/kg
